The source of these data is ChEMBL document CHEMBL6134868, “Novel Aryl Sulfonium Modification on Vancomycin to Tackle MRSA and VRE In Vitro and In Vivo through Dual Enhanced Cell-Wall and Membrane Inhibition” (J Med Chem, 2025).

As usually defined, the MIC is the smallest concentration in the dilution series that meets the test's criterion for growth inhibition. Low readings indicate a more susceptible organism, high ones a less susceptible organism.

Molecules are shown by their SMILES.

Data set [1] in a line: Protein binding in plasma (unknown origin). To be noted: read-out: PPB (converted). Format: ADME, cell-free.
In data set [2] the test system is Staphylococcus aureus. The experiment in a line: Antibacterial activity against vancomycin-intermediate Staphylococcus aureus Mu50 incubated for 16 to 24 hrs by broth microdilution assay. Format: functional. The conditions noted are these: time 16-24 hrs.
Data set [3] deals with Acinetobacter baumannii. The experiment in a line: Antibacterial activity against Acinetobacter baumannii ATCC19606 incubated for 16 to 24 hrs by broth microdilution assay. Type of data set: functional. To be noted: time 16-24 hrs. A general note: Dilution methods test growth across graded concentrations, often in twofold steps.
The test system of data set [4] is Enterococcus faecium. The experiment in a line: Antibacterial activity against vancomycin-resistant Enterococcus faecium Efm-HS-vb01 harboring VanB phenotype incubated for 16 to 24 hrs by broth microdilution assay. Type of data set: functional. To be noted: time 16-24 hrs.
Another data set has as its system Pseudomonas aeruginosa. The experiment in a line: Antibacterial activity against Pseudomonas aeruginosa PAO1 incubated for 16 to 24 hrs by broth microdilution assay. The conditions noted are these: time 16-24 hrs. Type of data set: functional.
Data set [5] deals with Acinetobacter baumannii. The experiment in a line: Antibacterial activity against carbapenem-resistant Acinetobacter baumannii CRAB-1 clinical isolate incubated for 16 to 24 hrs by broth microdilution assay. Format: functional. To be noted: time 16-24 hrs.
A further data set has as its system Escherichia coli. The experiment in a line: Antibacterial activity against Escherichia coli AB1157 incubated for 16 to 24 hrs by broth microdilution assay. Format: functional. The conditions noted are these: time 16-24 hrs.
Data set [6] has as its system Enterococcus faecium. The experiment in a line: Antibacterial activity against vancomycin-resistant Enterococcus faecium Efm-HS-0649 harboring VanA phenotype incubated for 16 to 24 hrs by broth microdilution assay. Format: functional. The conditions noted are these: time 16-24 hrs.
In data set [7] the test system is Enterococcus faecium. The experiment in a line: Antibacterial activity against vancomycin-resistant Enterococcus faecium Efm-HS-vb02 harboring VanB phenotype incubated for 16 to 24 hrs by broth microdilution assay. Format: functional. To be noted: time 16-24 hrs.
In data set [8] the test system is Staphylococcus aureus. The experiment in a line: Antibacterial activity against methicillin-resistant Staphylococcus aureus USA300 LAC incubated for 16 to 24 hrs by broth microdilution assay. Format: functional. The conditions noted are these: time 16-24 hrs.
The next data set relates to Klebsiella pneumoniae. The experiment in a line: Antibacterial activity against Klebsiella pneumoniae KP-1 incubated for 16 to 24 hrs by broth microdilution assay. Format: functional. To be noted: time 16-24 hrs.
Data set [9] concerns Enterococcus faecium. The experiment in a line: Antibacterial activity against vancomycin-resistant Enterococcus faecium Efm-HS-08257 harboring VanM phenotype incubated for 16 to 24 hrs by broth microdilution assay. Type of data set: functional. The conditions noted are these: time 16-24 hrs.

For the molecule `CN[C@H](CC(C)C)C(=O)N[C@H]1C(=O)N[C@@H](CC(N)=O)C(=O)N[C@H]2C(=O)N[C@H]3C(=O)N[C@H](C(=O)N[C@H](C(=O)O)c4cc(O)cc(O)c4-c4cc3ccc4O)[C@H](O[C@H]3C[C@](C)(N)[C@@H](O)[C@H](C)O3)c3ccc(c(Cl)c3)Oc3cc2cc(c3O[C@@H]2O[C@H](CO)[C@@H](O)[C@H](O)[C@H]2O[C@H]2C[C@](C)(NCc3ccc(-c4ccc(Cl)cc4)cc3)[C@@H](O)[C@H](C)O2)Oc2ccc(cc2Cl)[C@H]1O` [ORITAVANCIN], the fraction unbound in data set [1] is 0.14.
Same read-out and setting: next, `CCCCCCCCCCNCCN[C@@]1(C)C[C@H](O[C@H]2[C@H](Oc3c4cc5cc3Oc3ccc(cc3Cl)[C@@H](O)[C@@H](NC(=O)[C@@H](CC(C)C)NC)C(=O)N[C@@H](CC(N)=O)C(=O)N[C@H]5C(=O)N[C@H]3C(=O)N[C@H](C(=O)N[C@H](C(=O)O)c5cc(O)c(CNCP(=O)(O)O)c(O)c5-c5cc3ccc5O)[C@H](O)c3ccc(c(Cl)c3)O4)O[C@H](CO)[C@@H](O)[C@@H]2O)O[C@@H](C)[C@H]1O` [TELAVANCIN]: 0.1; `CN[C@H]1C(=O)N[C@@H]2Cc3ccc(cc3)Oc3cc4cc(c3O[C@@H]3O[C@H](C(=O)O)[C@@H](O)[C@H](O)[C@H]3NC(=O)CCCCCCCCC(C)C)Oc3ccc(cc3Cl)[C@@H](O)[C@@H]3NC(=O)[C@H](NC(=O)[C@@H]4NC(=O)[C@@H](NC2=O)c2cc(cc(O)c2Cl)Oc2cc1ccc2O)c1ccc(O)c(c1)-c1c(OC2OC(CO)C(O)C(O)C2O)cc(O)cc1[C@@H](C(=O)NCCCN(C)C)NC3=O` (stereo partly drawn): 0.07.
As to `CN[C@H](CC(C)C)C(=O)N[C@H]1C(=O)N[C@@H](CC(N)=O)C(=O)N[C@H]2C(=O)N[C@H]3C(=O)N[C@H](C(=O)N[C@H](C(=O)NCCC[S+](C)CC(O)COc4ccc(Br)cc4)c4cc(O)cc(O)c4-c4cc3ccc4O)[C@H](O)c3ccc(c(Cl)c3)Oc3cc2cc(c3O[C@@H]2O[C@H](CO)[C@@H](O)[C@H](O)[C@H]2O[C@H]2C[C@](C)(N)[C@H](O)[C@H](C)O2)Oc2ccc(cc2Cl)[C@H]1O.O=C([O-])C(F)(F)F` (stereo partly drawn), the MIC was 1 µg/mL against Staphylococcus aureus [2]; 32 µg/mL against Acinetobacter baumannii [3]; 4 µg/mL against Enterococcus faecium [4]; 128 µg/mL with Pseudomonas aeruginosa; 64 µg/mL in the data set on Acinetobacter baumannii [5]; 16 µg/mL in the data set with Escherichia coli. Further, the MIC in the data set with Enterococcus faecium [6] is 8 µg/mL; in the data set on Enterococcus faecium [7], 4 µg/mL; with Staphylococcus aureus [8] it was at most 0.063 µg/mL; against Klebsiella pneumoniae it was over 128 µg/mL; against Enterococcus faecium [9] it was 4 µg/mL.
For the molecule `CN[C@H](CC(C)C)C(=O)N[C@H]1C(=O)N[C@@H](CC(N)=O)C(=O)N[C@H]2C(=O)N[C@H]3C(=O)N[C@H](C(=O)N[C@H](C(=O)O)c4cc(O)cc(O)c4-c4cc3ccc4O)[C@H](O)c3ccc(c(Cl)c3)Oc3cc2cc(c3O[C@@H]2O[C@H](CO)[C@@H](O)[C@H](O)[C@H]2O[C@H]2C[C@](C)(NCCC[S+](C)CC(O)COc3ccccc3)[C@H](O)[C@H](C)O2)Oc2ccc(cc2Cl)[C@H]1O.O=C([O-])C(F)(F)F` (stereo partly drawn), the MIC was 1 µg/mL in the data set on Staphylococcus aureus [2]; 128 µg/mL in the data set with Acinetobacter baumannii [3]; 16 µg/mL in the data set with Enterococcus faecium [4]; over 128 µg/mL against Pseudomonas aeruginosa; 128 µg/mL in the data set with Acinetobacter baumannii [5]; 128 µg/mL in the data set with Escherichia coli. Moreover, the MIC against Enterococcus faecium [6] was 16 µg/mL; against Enterococcus faecium [7], 4 µg/mL; against Staphylococcus aureus [8] it was 0.25 µg/mL; in the data set with Klebsiella pneumoniae, over 128 µg/mL; in the data set on Enterococcus faecium [9], 16 µg/mL.
Regarding `CN[C@H](CC(C)C)C(=O)N[C@H]1C(=O)N[C@@H](CC(N)=O)C(=O)N[C@H]2C(=O)N[C@H]3C(=O)N[C@H](C(=O)N[C@H](C(=O)O)c4cc(O)c(CNCCC[S+](C)C[C@@H](O)COc5ccccc5)c(O)c4-c4cc3ccc4O)[C@H](O)c3ccc(c(Cl)c3)Oc3cc2cc(c3O[C@@H]2O[C@H](CO)[C@@H](O)[C@H](O)[C@H]2O[C@H]2C[C@](C)(N)[C@H](O)[C@H](C)O2)Oc2ccc(cc2Cl)[C@H]1O.O=C([O-])C(F)(F)F` (stereo partly drawn), the MIC against Staphylococcus aureus [2] was 4 µg/mL; against Acinetobacter baumannii [3] it was 128 µg/mL; against Enterococcus faecium [4], 2 µg/mL; in the data set on Pseudomonas aeruginosa, over 128 µg/mL; with Acinetobacter baumannii [5] it was over 128 µg/mL; in the data set with Escherichia coli it was 16 µg/mL. The MIC against Enterococcus faecium [6] was over 128 µg/mL; with Enterococcus faecium [7], 4 µg/mL; with Staphylococcus aureus [8] it was 0.5 µg/mL; with Klebsiella pneumoniae it was over 128 µg/mL; against Enterococcus faecium [9] it was 128 µg/mL.
As for `CN[C@H](CC(C)C)C(=O)N[C@H]1C(=O)N[C@@H](CC(N)=O)C(=O)N[C@H]2C(=O)N[C@H]3C(=O)N[C@H](C(=O)N[C@H](C(=O)NCCC[S+](C)CC(O)COc4ccc(OC)cc4)c4cc(O)cc(O)c4-c4cc3ccc4O)[C@H](O)c3ccc(c(Cl)c3)Oc3cc2cc(c3O[C@@H]2O[C@H](CO)[C@@H](O)[C@H](O)[C@H]2O[C@H]2C[C@](C)(N)[C@H](O)[C@H](C)O2)Oc2ccc(cc2Cl)[C@H]1O.O=C([O-])C(F)(F)F` (stereo partly drawn), the MIC is 2 µg/mL with Staphylococcus aureus [2]; 64 µg/mL in the data set on Acinetobacter baumannii [3]; 16 µg/mL in the data set on Enterococcus faecium [4]; over 128 µg/mL in the data set with Pseudomonas aeruginosa; 64 µg/mL in the data set on Acinetobacter baumannii [5]; 16 µg/mL in the data set with Escherichia coli. Besides, the MIC in the data set on Enterococcus faecium [6] was 32 µg/mL; with Enterococcus faecium [7] it was 4 µg/mL; with Staphylococcus aureus [8], 0.25 µg/mL; in the data set on Klebsiella pneumoniae, over 128 µg/mL; against Enterococcus faecium [9], 16 µg/mL.
With `CN[C@H](CC(C)C)C(=O)N[C@H]1C(=O)N[C@@H](CC(N)=O)C(=O)N[C@H]2C(=O)N[C@H]3C(=O)N[C@H](C(=O)N[C@H](C(=O)NCCC[S+](C)CC(O)COc4ccc(-c5ccc(Cl)cc5)cc4)c4cc(O)cc(O)c4-c4cc3ccc4O)[C@H](O)c3ccc(c(Cl)c3)Oc3cc2cc(c3O[C@@H]2O[C@H](CO)[C@@H](O)[C@H](O)[C@H]2O[C@H]2C[C@](C)(N)[C@H](O)[C@H](C)O2)Oc2ccc(cc2Cl)[C@H]1O.O=C([O-])C(F)(F)F` (stereo partly drawn), the minimal inhibitory concentration (MIC) with Staphylococcus aureus [2] is 0.25 µg/mL; against Acinetobacter baumannii [3] it was 16 µg/mL; with Enterococcus faecium [4] it was 4 µg/mL; with Pseudomonas aeruginosa it was over 128 µg/mL; against Acinetobacter baumannii [5] it was 64 µg/mL; against Escherichia coli, 16 µg/mL. The minimum inhibitory concentration (MIC) with Enterococcus faecium [6] is 2 µg/mL; with Enterococcus faecium [7] it was 0.5 µg/mL; in the data set on Staphylococcus aureus [8], at most 0.063 µg/mL; in the data set on Klebsiella pneumoniae, over 128 µg/mL; against Enterococcus faecium [9] it was 2 µg/mL.
